Assay results reported in patent US20240124444A1 (Celgene Corporation, priority 2020, published 2024).
Where two headings read alike, the source gives them in different places.

Tested on: C. parvum strain UGA1
Assay: C. parvum growth inhibition assay (Nluc luminescence in HCT-8 cells)
Format: cell-based, Cryptosporidium parvum
Conditions: Cryptosporidium parvum; for inhibition at 1 µM / inhibition at 10 µM: HCT-8; for inhibition at 1 µM: read-out: % inh @ 1 uM C. parvum; for inhibition at 10 µM: read-out: % inh @ 10 uM C. parvum; for EC50: HCT-8, 48 h, C. parvum growth inhibition in HCT-8 cells, 48 hours, 6 concentrations 10-0.04 μM
[1] = single point inhibition at 1 uM
[2] = single point inhibition at 10 uM
[3] = single point inhibition @ 10 uM

Compound	inhibition at 1 µM [1] [%]	inhibition at 10 µM [2] [%]	EC50 [µM]	inhibition at 1 µM (single point inhibition @ 1 uM) [%]	inhibition at 10 µM [3] [%]
Cc1cc(C(=O)Nc2cc3[nH]c(-c4ccncc4)cc3cn2)nn1C [Example 282, 1,5-dimethyl-N-(2-(pyridin-4-yl)-1H-pyrrolo[3,2-c]pyridin-6-yl)-1H-pyrazole-3-carboxamide]	0 to 33	0 to 33			
COc1nccc(-c2cc3cnc(NC4CCOCC4)cc3[nH]2)n1 [Example 62, 2-(2-methoxypyrimidin-4-yl)-N-(tetrahydro-2H-pyran-4-yl)-1H-pyrrolo[3,2-c]pyridin-6-amine]			> 1		
COc1nccc(-c2cc3cnc(NC(=O)[C@H]4C[C@@H](O)C4)cc3n2C)n1 [Example 163, (1s,3s)-3-hydroxy-N-(2-(2-methoxypyrimidin-4-yl)-1-methyl-1H-pyrrolo[3,2-c]pyridin-6-yl)cyclobutanecarboxamide]				0 to 33	67 to 100
CC(C)n1cc(C(=O)Nc2cc3[nH]c(-c4ccnc(OCCF)n4)cc3cn2)cn1 [Example 146, N-(2-(2-(2-fluoroethoxy)pyrimidin-4-yl)-1H-pyrrolo[3,2-c]pyridin-6-yl)-1-isopropyl-1H-pyrazole-4-carboxamide]				0 to 33	67 to 100
CSc1ccc(Nc2cc3c(cn2)cc(-c2cnn(C)c2)n3C)cc1 [Example 193, 1-methyl-2-(1-methyl-1H-pyrazol-4-yl)-N-(4-(methylthio)phenyl)-1H-pyrrolo[3,2-c]pyridin-6-amine]				0 to 33	67 to 100
CN(CC(F)(F)F)c1nccc(-c2cc3cnc(NC4CCOCC4)cc3n2C)n1 [Example 30, 1-Methyl-2-(2-(methyl(2,2,2-trifluoroethyl)amino)pyrimidin-4-yl)-N-(tetrahydro-2h-pyran-4-yl)-1H-pyrrolo[3,2-c]pyridin-6-amine]			> 1	0 to 33	
Cn1cnc(-c2cc3cnc(NC(=O)C4CC4)cc3[nH]2)c1 [Example 60, N-(2-(1-methyl-1H-imidazol-4-yl)-1H-pyrrolo[3,2-c]pyridin-6-yl)cyclopropanecarboxamide]			> 1		
Cc1cc(-c2cc3cnc(NC(=O)N(C)C)cc3[nH]2)ccn1 [Example 291, 1,1-dimethyl-3-(2-(2-methylpyridin-4-yl)-1H-pyrrolo[3,2-c]pyridin-6-yl)urea]	0 to 33	0 to 33			
CCOc1nccc(-c2cc3cnc(NC(=O)C4C5CCCC54)cc3[nH]2)n1 (stereo not shown) [Example 58, N-(2-(2-ethoxypyrimidin-4-yl)-1H-pyrrolo[3,2-c]pyridin-6-yl)bicyclo[3.1.0]hexane-6-carboxamide]			> 1	0 to 33	67 to 100
Cn1cc(C(=O)Nc2cc3[nH]c(-c4ccnc(OCC(C)(C)C)n4)cc3cn2)cn1 [Example 319, 1-methyl-N-(2-(2-(neopentyloxy)pyrimidin-4-yl)-1H-pyrrolo[3,2-c]pyridin-6-yl)-1H-pyrazole-4-carboxamide]	0 to 33	0 to 33			
O=C(Nc1cc2[nH]c(C(F)(F)F)cc2cn1)C1CCC1 [Example 76, N-(2-(trifluoromethyl)-1H-pyrrolo[3,2-c]pyridin-6-yl)cyclobutanecarboxamide]			> 1		
CNC(=O)Nc1cc2[nH]c(-c3ccnc(C)c3)cc2cn1 [Example 214, 1-methyl-3-(2-(2-methylpyridin-4-yl)-1H-pyrrolo[3,2-c]pyridin-6-yl)urea]	0 to 33	67 to 100			
Cc1cc(C(=O)Nc2cc3[nH]c(-c4ccnc(NCC(F)(F)F)c4)cc3cn2)nn1C [Example 305, 1,5-dimethyl-N-(2-(2-(2,2,2-trifluoroethylamino)pyridin-4-yl)-1H-pyrrolo[3,2-c]pyridin-6-yl)-1H-pyrazole-3-carboxamide]	0 to 33	0 to 33			
Cn1cnc(-c2cc3cnc(NC(=O)C4CC4)cc3n2C)c1 [Example 342, N-(1-methyl-2-(1-methyl-1H-imidazol-4-yl)-1H-pyrrolo[3,2-c]pyridin-6-yl)cyclopropanecarboxamide]			> 1		
